Measured values from patent US11058738B2, “Herbal preparation for accelerating wounds and skin inflammations healing, especially for treatment of herpes and acne, and its application” (WYŻSZA SZKOŁA MEDYCZNA W BIAŁYMSTOKU, priority 2015, dated 2021).

Experiments:
open wounds = test: Epithelialization and wound healing in mammals with open wounds; assay type: in vivo
Description: A following semi-solid preparation was prepared for the study which was obtained by mixing together: • 40% w/w Melittis melissophyllum L. from the whole plant, • 20% w/w of 96% ethyl alcohol, • 40% w/w Vaseline album—a hydrocarbon based substance used in lipophilic ointments.
The substance, etched by ethyl alcohol, is dissolved with help of heat in a smooth ointment medium for better dispersion ofbiologically active substances contained in the test extract. It could also be mixed in a cold lipophilic medium. It is important that the substance has been dissolved in the medium at the concentration below saturation.
In the study three groups of mammals with open wounds were involved:
I control group—no treatment was applied to the wound, even antiseptic one.
II group—a typical antiseptic agent was used, chlorhexidine, in accordance with a standard protocol regarding a treatment of an infected wound.
III group—the herbal preparation with a Melittis melissophyllum L. extract was used.
The herbal preparation applied in a treatment of open wounds. It was used in a similar way as described in Example I. The experiment confirmed that the herbal preparation based on Melittis melissophyllum L. definitely accelerates repair processes during the wound healing.

[1] = test system: neutrophil white blood cells from the wound surface; test: Phagocytic activity of white blood cells (latex particles) from the healing wound surface; assay type: in vivo, mammals
Description: Phagocytic activity of white blood cells was assessed using phagocytic index (PI)—a percentage of phagocytes containing absorbed latex particles, and an amount of phagocytes (IF)—the average number of particles per phagocyte.
The established phagocytic activity of neutrophil white blood cells from the wound surface in different periods of the wound healing, i.e. an increase in phagocytic index and number of phagocytes due to presence of the Melittis melissophyllum L. extract, is shown in Table 2. It was found for the first time that the Melittis melissophyllum L. extract has a high therapeutic activity during a wound healing period in all stages of the wound healing, accelerating the wound repair process and cells proliferation, therefore ensuring the complete wound healing much earlier.

[H]/N=C(\N/C(=N/[H])NCCCCCCNC(=N)NC(=N)Nc1ccc(Cl)cc1)Nc1ccc(Cl)cc1 [Chlorhexidine, chlorhexidine]
complete epithelialization of the wound surface (open wounds): 12-th or 13-th | Beginning epitelialization (open wounds; topical): 3.9 ± 0.4 24-hours | Beginning of rejection of the crust (open wounds; topical): 7.6 ± 0.5 24-hours | Complete wound healing (open wounds; topical): 11.25 ± 0.19 24-hours | Full crust rejection (open wounds; topical): 10.5 ± 0.3 24-hours | IF (amount of phagocytes, average number of particles per 1 phagocyte) ([1]; 3 day after granulation): 10.0 ± 2.5 | PI (phagocytic index, percentage of phagocytes containing latex particles) ([1]; 3 day after granulation): 61.60 ± 9.49% | IF (amount of phagocytes, average number of particles per 1 phagocyte) ([1]; 5 day after granulation): 14.0 ± 3.0 | PI (phagocytic index, percentage of phagocytes containing latex particles) ([1]; 5 day after granulation): 59.01 ± 4.58% | IF (amount of phagocytes, average number of particles per 1 phagocyte) ([1]; 7 day after granulation): 11.0 ± 3.0 | PI (phagocytic index, percentage of phagocytes containing latex particles) ([1]; 7 day after granulation): 48.20 ± 5.51%
